Where “and” joins values, the source holds several entries; their conditions need not be identical. Equal entries are not always repeated.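 Assay format: 96-well plates, 48-hour exposure. The concentration for 50% growth inhibition is given as GI50. The concentration for full growth arrest is given as TGI.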
Legend:
Assay in all cases: growth of human tumour cells (NCI), 48 h
SNB-75 CNS = test system: SNB-75 CNS
SF-539 CNS = test system: SF-539 CNS
SN12C renal = test system: SN12C renal
LOX IMVI melanoma = test system: LOX IMVI melanoma
MALME-3M melanoma = test system: MALME-3M melanoma
HT29 colon = test system: HT29 colon
A549 NSCLC = test system: A549 NSCLC
SF-295 CNS = test system: SF-295 CNS
SK-MEL-5 melanoma = test system: SK-MEL-5 melanoma
A498 renal = test system: A498 renal

SMILES | GI50 (SNB-75 CNS) | TGI (SNB-75 CNS) | GI50 (SF-539 CNS) | TGI (SF-539 CNS) | GI50 (SN12C renal) | TGI (SN12C renal) | GI50 (LOX IMVI melanoma) | TGI (LOX IMVI melanoma) | GI50 (MALME-3M melanoma) | TGI (MALME-3M melanoma) | GI50 (HT29 colon) | TGI (HT29 colon) | GI50 (A549 NSCLC) | TGI (A549 NSCLC) | GI50 (SF-295 CNS) | TGI (SF-295 CNS) | GI50 (SK-MEL-5 melanoma) | TGI (SK-MEL-5 melanoma) | TGI (A498 renal) | GI50 (A498 renal)
CN(C)c1ccc(/C=N/NC(=O)CSc2nc3sc4c(c3c(=O)n2-c2ccccc2)CCCCC4)cc1 | 2.68 µM | 14.6 µM | 4.52 µM | 25.5 µM | 4.59 µM | > 100 µM | 3.05 µM | > 100 µM | 3.45 µM | > 100 µM | 4.31 µM | > 100 µM | 4.25 µM | > 100 µM | 3.39 µM | 20.7 µM | 3.44 µM | > 100 µM |  | 
COc1ccc(-c2cnc(SCC(=O)c3c(C)n(C)n(-c4ccccc4)c3=O)n2-c2ccc(OC)cc2)cc1 |  |  | > 50 µM | > 50 µM | > 50 µM | > 50 µM | 46.5 µM | > 50 µM |  |  | > 50 µM | > 50 µM | > 50 µM | > 50 µM | > 50 µM | > 50 µM | 22.3 µM | > 50 µM |  | 
O=C(/C=C/c1ccc[nH]1)c1ccccc1 |  | > 100 µM |  | > 100 µM |  | > 100 µM |  | > 100 µM |  | > 100 µM |  | > 100 µM |  | > 100 µM |  | > 100 µM |  | > 100 µM |  | 
CC1OC(OC23C(=O)CC(C)(O)CC2(O)C=CC2=C3C(=O)c3ccc(C4CC(OC5CCC(OC6CC(O)C(O)C(C)O6)C(C)O5)C(O)C(C)O4)c(O)c3C2=O)CCC1O (stereo not given) |  | 32.5 µM and 29.9 µM |  | 31.8 µM and 31.4 µM |  | 32.5 µM and 30.1 µM | 13.1 µM and 6.26 µM | 27.5 µM and 19.7 µM |  | 8.48 µM and 3.49 µM |  | 36.1 µM and 27.8 µM |  | 82.1 µM and 65.2 µM | 16.5 µM and 3.06 µM | 30.4 µM and 9.87 µM |  | 33.3 µM and 29.7 µM |  | 
CN(C)C(=O)C(NCCO)c1ccccc1 (stereo not given) |  | > 100 µM |  | > 100 µM |  | > 100 µM |  | > 100 µM |  |  |  | > 100 µM |  | > 100 µM |  | > 100 µM |  | > 100 µM | > 100 µM | 
CN(Cc1ccccc1)c1ncnc2ccc(Br)cc12 |  |  |  |  | 15.1 µM | 29.6 µM | 14.7 µM | 29.2 µM | 10.9 µM | 23.2 µM |  |  | 17.5 µM | 45.8 µM | 13.5 µM | 28.1 µM | 11.8 µM | 24.1 µM | 17.1 µM | 4.8 µM
N#Cc1c(N)n(C2OC(CO)C(O)C2O)c2ncnc(N)c12 (stereo not given) |  | 3.56 µM |  | 0.417 µM |  | 0.856 µM |  | 0.0595 µM |  | 0.161 µM |  | > 100 µM |  |  |  | 2.45 µM |  | 0.279 µM |  | 
COc1ccc(C(=C(C#N)C#N)c2ccc(OC)cc2)cc1 |  |  |  | > 100 µM |  | > 100 µM |  | > 100 µM |  |  |  | > 100 µM |  | > 100 µM |  | > 100 µM |  |  | > 100 µM | 
C=CC1CC12C(=O)C1OC2(C)C2C(=O)c3c(O)cccc3C(=O)C12 (stereo not given) | 72.4 µM | > 100 µM | 41.6 µM | > 100 µM | 46.8 µM | > 100 µM |  |  | 17.1 µM | 54.5 µM | 33.9 µM | > 100 µM | 70 µM | > 100 µM |  |  |  |  |  | 
[O-]c1ccccc1[C-]=Nc1ccccc1O.[O-]c1ccccc1[C-]=Nc1ccccc1O.[O]=[U]=[O] | 25.1 µM | 64.5 µM |  |  | 10 µM | 35.4 µM | 9.82 µM | 68 µM | 12.8 µM | 30.1 µM | 16 µM | 95.3 µM | 16.2 µM | 43.9 µM | 16.4 µM | 43.5 µM | 8.38 µM | 43 µM | 46.6 µM | 22.8 µM
N=C(N)c1ccc(CS(=O)(=O)F)cc1 | > 100 µM | > 100 µM | > 100 µM | > 100 µM | > 100 µM | > 100 µM | 81.2 µM | > 100 µM | > 100 µM | > 100 µM | > 100 µM | > 100 µM | > 100 µM | > 100 µM | > 100 µM | > 100 µM | > 100 µM | > 100 µM |  | 
C[C@]12CC/C(=N\O)C[C@@H]1CC[C@@H]1[C@@H]2CC[C@]2(C)/C(=N/O)CC[C@@H]12 | 37.3 µM | > 100 µM | 37.9 µM | > 100 µM | 47.1 µM | > 100 µM | 21.3 µM | 50.7 µM |  |  | 42.7 µM | > 100 µM | 52.7 µM | > 100 µM | 38.2 µM | > 100 µM | 23.6 µM | 53.9 µM | > 100 µM | 47.2 µM
O=S1(=O)OCc2ccccc21 |  | > 100 µM |  | > 100 µM |  | > 100 µM |  |  |  | > 100 µM |  | > 100 µM |  | > 100 µM |  | > 100 µM |  | > 100 µM | > 100 µM | 
CC(C)(C)c1cc(O)c2c(c1O)C(=O)CCC2 |  | > 100 µM |  | > 100 µM |  | > 100 µM |  | > 100 µM |  |  |  | > 100 µM |  | > 100 µM |  | 99.2 µM |  | 39.2 µM | > 100 µM | 
NNC(=O)C(O)C(O)C(O)CO (stereo not given) |  | > 100 µM |  |  |  | > 100 µM |  | > 100 µM |  | > 100 µM |  | > 100 µM |  | > 100 µM |  | > 100 µM |  | > 100 µM | > 100 µM | 
CCOc1ccc(NC(=O)/C(Cc2nc3ccccc3[nH]c2=O)=N\O)cc1 |  | > 100 µM |  | > 100 µM |  |  |  | > 100 µM |  | > 100 µM |  |  |  | > 100 µM |  |  |  | > 100 µM | > 100 µM | 
CO[C@H](C(=O)O[C@H]1C(=O)N2CCC3CCC1C32C)c1ccccc1 (stereo not given in full) |  | > 100 µM |  | > 100 µM |  | > 100 µM |  | > 100 µM |  | > 100 µM |  | > 100 µM |  | > 100 µM |  | > 100 µM |  | > 100 µM |  | 
CC1=CC[C@@H]2[C@@H](CC[C@@]2(C)O)C(C)(C)[C@H]1CC[C@@H]1[C@@]2(C)CC[C@@H](O)C(C)(C)O[C@@H]2CC[C@]1(C)O |  |  |  | 44 µM |  | 57.2 µM |  | 29.8 µM |  |  |  |  |  | > 100 µM |  | > 100 µM |  | 27.8 µM | 29.3 µM | 
Cc1cc(N(CCC#N)CCC#N)ccc1/C=C(\NC(=O)/C=C/c1ccccc1)NC(=O)Nc1ccccc1C |  |  |  | > 100 µM |  | > 100 µM |  | > 100 µM |  | > 100 µM |  | > 100 µM |  | > 100 µM |  | > 100 µM |  | > 100 µM | > 100 µM | 
